Results published in PMC9666779 (Frontiers in Pharmacology, 2022).
Bridge positions count the residues as written; N and C are the ends. Square brackets hold non-standard residues; d marks the D form. Peptide text beside a SMILES is read from it.

Test system: pseudotyped SARS-CoV-2 Omicron BA.2.75
Details: pseudotyped Omicron BA.2.75, 1 h, 2 μM

## CC(C)C[C@@H]1NC(=O)[C@H](C(C)C)NC(=O)[C@H](C)NC(=O)[C@H](Cc2ccc(O)cc2)NC(=O)[C@H](CCC(N)=O)NC(=O)[C@H](CC(C)C)NC(=O)[C@@H](Cc2ccccc2)NC(=O)[C@H](N)CSSC[C@H](C(=O)NCC(=O)NCC(=O)NCC(=O)N[C@@H](CCCNC(=N)N)C(=O)N2CCC[C@H]2C(=O)N2CCC[C@H]2C(=O)N[C@@H](CCCNC(=N)N)C(=O)N[C@@H](CCCNC(=N)N)C(=O)N[C@@H](C)C(=O)N[C@@H](CCCNC(=N)N)C(=O)O)NC(=O)[C@H](CCC(=O)O)NC(=O)[C@H](CCCNC(=N)N)NC(=O)[C@H](CCCNC(=N)N)NC(=O)[C@H](CCCCN)NC(=O)[C@H](CCC(N)=O)NC(=O)[C@H](CCCCN)NC1=O [MN-2] (H-[dC][dF]LQYAVLKQKRRE[dC]GGGRPPRRAR-OH; disulfide 1-15)
  inhibition rate of the variant Omicron BA.2.75 pseudovirus: about 80%
